Data published in patent publication US11160750B2, “Composition and method for promoting hair growth” (ZivMas LLC, priority 2017, dated 2021).

Experiments:
[1] = tested on: DHT production; assay: ELISA for DHT detection in male HFDP cells; format: cell-based, human; settings: 5 μM testosterone
Procedure: Dihydrotestosterone (DHT) detection was performed using the Aviva Systems Biology dihydrotestosterone ELISA kit (OKEH02531). The technique is based on a competitive binding enzyme immunoassay. 96 well plate has been pre-coated with an antibiotinylated dihydrotestosterone antibody. 50 μl of HFDP cells control and treated samples were added to the wells along with 50 μl of 1× dihydrotestosterone-Biotin complex. After incubation at 37° C. for 60 min wells were washed 3 times with 1× Wash buffer and was added to each well 100 μl of Avidin-HRP conjugate solution. Another step of incubation at 37° C. for 45 min and washing with 1× wash buffer was performed. 90 μl of TMB subtract was added and to each well followed by incubation in dark, 37° C. for 15-30 minutes. Finally, 50 μl of a stop solution was added and the quantification was determined by measuring the optical density at 450 nm in an enzyme-linked immunosorbent assay (Spark, Tecan) reader.

[2] = tested on: human follicle derma papilla cells (HFDP); assay: Cell proliferation assay in HFDP cells; format: cell-based; settings: 0.5 ug/ml
Procedure: Adherent human cell lines were cultured according to standard mammalian tissue culture protocols and sterile technique. Human follicle derma papilla cells were cultured in human follicle dermal papilla cell growth medium, ready to use, low-serum. Keratinocyte cells (HaCaT) were cultured in high glucose Dulbecco's Modified Eagle Medium with 10% serum. Normal human […] cells such as HFF and BJ were culture in BIOAMF-2 complete medium (Biological industries). All media was supplemented with streptomycin ([…]), penicillin (100 U/ml) and Nystatin (12.5 U/ml). Cells were incubated in 5% CO2 at 37° C. All tissue culture were maintained in 25 cm^2 Nunc™ cell culture treated EasYFlask™ (Thermofisher scientific) and all the media and supplements were obtained from Biological Industries. Treatment were performed by plating cells in a Nunc™ 96 micro well delta surface plates (Thermofisher scientific) in a starting confluence of 0.5×10^4 cells/well. After 24 h of incubation the cells were treated with the ZM-26 composition.
Viability of the cells following treatment was determined using a commercially available MTT assay kit (ABCAM, ab146345) and performed according to manufacturer's instructions. […] The quantification was determined by measuring the optical density at 570 nm in an enzyme-linked immunosorbent assay (Spark, Tecan) reader. […]

Question: With `C[C@]12CC[C@H]3[C@@H](CCC4=CC(=O)CC[C@@]43C)[C@@H]1CC[C@@H]2O` [testosterone] as the molecule, how does the DHT levels increase [1] read?
Answer: 4.4 fold

Question: With `Nc1cc(N2CCCCC2)nc(N)[n+]1[O-]` [minoxidil] as the molecule, how does the “cell viability after 48 h treatment” value [2] read?
Answer: caused cell death
